This is an account of results in patent US9868692B2, “Compounds and compositions for intracellular delivery of therapeutic agents” (MODERNATX, Inc., priority 2015, dated 2018).

For one series, the system named is hEPO mRNA expression. The series is described as follows: hEPO expression after intravenous administration to mice. As to conditions: i.v., 0.5 mpk, 3, 6 and 24 hours. The class given is in vivo. The method, then:
Sample formulations of nanoparticle compositions including different lipids are generally first evaluated according to Luc expression in vivo. The activity of several such compositions was further evaluated using an mRNA encoding hEPO. Nanoparticle compositions including Compounds 6, 18, 25, 30, 108-112, 60, and 122, or MC3 were prepared according to Example 2.
The expression of hEPO and cytokine induction in mice intravenously administered a nanoparticle composition at a dose of 0.5 mpk were measured at 3, 6, and 24 hours. […] The expression of hEPO in mice intramuscularly administered a nanoparticle composition from Table 1B at a dose of 0.01 mpk were measured at 3, 6, and 24 hours. […] (see also FIG. 9.)

Series [1] concerns luciferase (Luc) mRNA expression. The series is described as follows: Luc expression (total flux) after intramuscular administration. In kind it is in vivo, mice. As to conditions: i.m. On the procedure:
The numbers 1-7 in this figure correspond to MC3, Compounds 168-170, and 173-175 respectively.
Sample formulations including both modified luciferase (Luc) mRNA and H10 mRNA were prepared and administered intramuscularly and the resulting expression and immunogenicity were evaluated simultaneously. Formulations including compounds according to Formula (I), (IA), (II), (IIa), (IIb), (IIc), (IId) or (IIe) were prepared and administered at doses of 0.001 and 0.01 mpk (e.g., doses of 0.0005 mpk of a formulation including Luc mRNA and a formulation including H10 mRNA or doses of 0.005 mpk of a formulation including Luc mRNA and a formulation including H10 mRNA).
Sample formulations including modified luciferase (Luc) mRNA prepared and administered intramuscularly and the resulting expression and immunogenicity were evaluated simultaneously. Formulations including compounds according to Formula (I), (IA), (II), (IIa), (IIb), (IIc), (IId) or (IIe) were prepared and administered at dose of […] 0.01 mpk.
The fluxes measured upon intravenous and intramuscular administration are compared in Table 6. Fluxes are presented as fold increase over that measured for MC3 formulations.

Series [2] is described as follows: Lipid clearance: % dose remaining in liver after administration of Luc formulations. The class given is in vivo, mice. As to conditions: Table 3D.
Series [3] is described as follows: Residual lipid level in liver of rats (UPLC-MS quantification). As to conditions: rat; for concentration at 48 h: intravenous. The class given is in vivo. On the procedure: (§1) To pre-weighed tissues, Milli-Q water was added (900 μL water per 100 mg tissue). Tissues were homogenized using an Omni probe homogenizer until uniform. 50 μL of samples and matrix calibration standards were aliquoted into a 96-well plate. 50 μL of blank matrix for matrix blanks and control blanks were aliquoted. 400 μL IS spiking solution were manually added to all samples except matrix blanks. 400 μL of 50:50 ACN:IPA were manually added to matrix blanks. The plate was covered and the samples vortexed and centrifuged for 5 minutes at >3000 rpm. 200 μL of the samples were transferred into a clean 96-well plate for analysis. […] Detection was based on electrospray ionization (ESI) in positive mode using a Sciex API5500 Mass Spectrometer.
(§2) The expression of hEPO in rats intravenously administered a nanoparticle composition at a dose of 0.2 mpk or 2.0 mpk was measured at 6 hours. […] Liver and spleen levels represent the average values calculated for 3 rats in each group.
(§3) The expression of hEPO and lipid levels in the liver and spleen in rats intravenously administered a nanoparticle composition at a dose of 0.2 mpk was measured at various timepoints. […] Lipids were formulated according to the standard MC3 formulation described above.

A short description of series [4]: Clinical chemistry and hematology after intravenous administration to rat. The class given is in vivo. As to conditions: i.v., 2 mpk, 48 h post dose. On the procedure: Sample formulations of nanoparticle compositions including different lipids were administered intravenously to rat at a dose of 2 mpk. The expression of various clinical markers was evaluated at 48 h post dose and compared to that induced by administration of MC3 formulations or phosphate buffered saline (PBS).
Table 19 summarizes the hEPO expression, IP-10 induction, liver and spleen levels, and alanine aminotransferase (ALT) and aspartate aminotransferase (AST) measured upon intravenous administration of formulations including Compounds 48, 49, and 50 to rat at 0.2 and 2 mpk and hEPO mRNA. hEPO concentrations were measured 6 hours after administration, while cytokine induction and liver and spleen levels were measured 48 hours after administration. hEPO and IP-10 concentrations are presented in pg/ml, while liver levels are provided in ng/g. ALT and AST levels are presented in international units.

A short description of series [5]: Residual lipid level in spleen of rats (UPLC-MS quantification). The class given is in vivo. Particulars: rat. The method, then:
as §1, §2, §3

As for `CCCCC/C=C\C/C=C\CCCCCCCCN(CCO)CCCCCCCC(=O)OC(CCCCCCCC)CCCCCCCC` [Compound 6, Heptadecan-9-yl 8-((2-hydroxyethyl)((9Z,12Z)-octadeca-9,12-dien-1-yl)amino)octanoate], in the series on hEPO mRNA expression, the “hEPO concentrations versus MC3 formulations at each time point” value is “higher hEPO concentrations than MC3 formulations”.

Consider `CCCCCCCCCOC(=O)CCCCCCCN(CCCCO)CCCCCCCC(=O)OC(CCCCCCCC)CCCCCCCC` [Compound 20, Heptadecan-9-yl 8-((4-hydroxybutyl)(8-(nonyloxy)-8-oxooctyl)amino) octanoate], for which the “expression at both dose levels” value in series [1] (0.001 and 0.01 mpk) is listed as “highest expression”. Besides, the “Total flux (p/s) 0.01 mpk Dose” value in series [1] (6 hours, Luc mRNA and H10 mRNA, 0.01 mpk (Table 5A)) was 9.72E+07 p/s.

For the compound `CCCCCC=CCC=CCCCCCCCCC(CCCCCCCCC=CCC=CCCCCC)OC(=O)CCCN(C)C` (stereo not shown) [MC3, heptatriaconta-6,9,28,31-tetraen-19-yl 4-(dimethylamino)butanoate, reference compound], the figures for the “% Dose Remaining in Liver 6h” value in series [2] (first column of this head) and in series [2] (second column of this head) were 80% and 54%, respectively. Further, the “% Lipid Remaining in liver, 48 h 2 mpk” value in series [3] (2 mpk, 48 h, assuming 300 g rat and 15 g liver) amounted to 87%. In addition, the “lipid remained in the liver after 48 hours” value in series [3] (48 hours after administration (text to Tables 17 and 18)) was “greater than 60%”. Also, the concentration at 48 h is 25000 ng/g in series [3] (liver, 0.2 mg/kg, 0.2 mpk, 48 h, average of 3 rats, read-out: Liver level); 285000 ng/g in series [3] (liver, 2 mg/kg, 2 mpk, 48 h, average of 3 rats, read-out: Liver level); 13200 ng/g in series [3] (liver, iv, 0.2 mg/kg, 0.2 mpk, 48 h, read-out: Lipid level in liver); 11300 ng/g in series [3] (liver, iv, 0.2 mg/kg, 0.2 mpk, 48 hours, read-out: Liver level); 141000 ng/g in series [3] (liver, iv, 2 mg/kg, 2 mpk, 48 hours, read-out: Liver level); 9440 ng/g in series [5] (intravenous, 0.2 mg/kg, 0.2 mpk, average of 3 rats, read-out: Spleen level). In addition, the concentration at 48 h in series [5] (intravenous, 2 mg/kg, 2 mpk, average of 3 rats, read-out: Spleen level) amounted to 129000 ng/g; in series [5] (iv, 0.2 mg/kg, 0.2 mpk, read-out: Lipid level in spleen) it was 11600 ng/g. In addition, the concentration at 0.25 h turned out to be 13200 ng/g in series [3] (liver, iv, 0.2 mg/kg, 0.2 mpk, 0.25 h) and 4100 ng/g in series [5] (iv, 0.2 mg/kg, 0.2 mpk, 0.25 h). Further, the concentration at 0.5 h in series [3] (liver, iv, 0.2 mg/kg, 0.2 mpk, 0.5 h) was found to be 20500 ng/g; in series [5] (iv, 0.2 mg/kg, 0.2 mpk, 0.5 h) it was 6240 ng/g. The concentration at 1 h in series [3] (liver, iv, 0.2 mg/kg, 0.2 mpk, 1 h) was 16800 ng/g; in series [5] (iv, 0.2 mg/kg, 0.2 mpk, 1 h) it was 4200 ng/g. Moreover, the concentration at 2 h came to 26000 ng/g in series [3] (liver, iv, 0.2 mg/kg, 0.2 mpk, 2 h) and 8610 ng/g in series [5] (iv, 0.2 mg/kg, 0.2 mpk, 2 h). For the same compound, the concentration at 4 h stood at 24700 ng/g in series [3] (liver, iv, 0.2 mg/kg, 0.2 mpk, 4 h) and 11900 ng/g in series [5] (iv, 0.2 mg/kg, 0.2 mpk, 4 h). For the same compound, the concentration at 8 h in series [3] (liver, iv, 0.2 mg/kg, 0.2 mpk, 8 h) was 32600 ng/g; in series [5] (iv, 0.2 mg/kg, 0.2 mpk, 8 h), 21200 ng/g. Besides, the concentration at 24 h in series [3] (liver, iv, 0.2 mg/kg, 0.2 mpk, 24 h) stood at 33000 ng/g; in series [5] (iv, 0.2 mg/kg, 0.2 mpk, 24 h), 19100 ng/g. Further, the “Concentration Alanine aminotransferase” value in series [4] is 339. Besides, in series [4], the “Concentration Aspartate aminotransferase” value was found to be 325. For the same compound, the “Concentration Lymphocytes” value in series [4] is recorded as 19976. In series [4], the “Concentration Monocytes” value was found to be 1429. In addition, in series [4], the “Concentration Neutrophils” value stood at 4962.5.
